Values quoted from earlier work as cited in publication PMC8330515 (Bioorganic & medicinal chemistry letters, 2020).

Test system: normal prostate epithelial cells
Conditions: read-out: 24 h IC50 in normal prostate epithelial cells

Compound: CCN(CC)C(=S)SCc1ccc(NC(=O)CC[C@H](N)C(=O)O)cc1 [GGTDTC]
- IC50: > 15 µM
